Three molecules from paper PMC4367188 (ACS Chemical Neuroscience, 2015) can be followed below.

In one series the target is T1, WT hCHT (Homo sapiens, UniProt Q9GZV3).
T1 sequence (Q9GZV3 1-580): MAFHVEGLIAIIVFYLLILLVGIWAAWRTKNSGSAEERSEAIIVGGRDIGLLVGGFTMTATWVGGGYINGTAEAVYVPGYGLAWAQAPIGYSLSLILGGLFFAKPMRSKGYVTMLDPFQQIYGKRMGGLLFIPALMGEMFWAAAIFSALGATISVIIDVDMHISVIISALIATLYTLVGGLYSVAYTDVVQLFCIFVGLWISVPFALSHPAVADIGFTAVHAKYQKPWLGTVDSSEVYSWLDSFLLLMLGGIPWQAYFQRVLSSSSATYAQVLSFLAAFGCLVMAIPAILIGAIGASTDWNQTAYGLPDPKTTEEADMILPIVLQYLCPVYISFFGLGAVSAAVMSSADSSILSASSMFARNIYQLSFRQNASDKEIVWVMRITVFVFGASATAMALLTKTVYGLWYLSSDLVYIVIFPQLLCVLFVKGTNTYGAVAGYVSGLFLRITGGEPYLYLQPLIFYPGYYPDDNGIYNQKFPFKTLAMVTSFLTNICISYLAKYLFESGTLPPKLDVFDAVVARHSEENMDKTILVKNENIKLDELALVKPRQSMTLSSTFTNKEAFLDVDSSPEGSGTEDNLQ
Kind of series: cell-surface biotinylation, CHT surface expression in WT hCHT HEK 293 cells. In kind it is cell-based.

In another series the target is T2, hCHT (Homo sapiens, UniProt Q9GZV3).
T2 sequence (Q9GZV3 1-580): T1 sequence (Q9GZV3 1-580)
Kind of series: [3H]HC-3 binding to membranes from HEK hCHT cells.

Substrate in series [1]: C[N+](C)(C)CCO
Kind of series: cells, lysate or membranes. As to conditions: other: hCHT LV-AA transfected cells; no inhibitor; 37.0 °C.

Residue numbers refer to the chain shown, from its start. Numbers in names are those of the source.

Broadly, the Kd is the equilibrium constant for the complex coming apart. On to `C[N+]1(C)CCOC(O)(c2ccc(-c3ccc(C4(O)C[N+](C)(C)CCO4)cc3)cc2)C1` (stereo not shown) [HC-3, hemicholinium-3, reference compound], for which the “increase in steady-state hCHT surface expression” value at WT hCHT (5 μM, 15 min incubation) was 76 ± 16 % of control. This molecule returned a Kd on hCHT of 8.5 ± 1.1 nM.

As for `C[N+](C)(C)CCO` [choline], the “effect of choline on CHT surface expression” value at WT hCHT (choline (10 μM), 15 min) is “no evidence for the previously reported choline-dependent reductions”.

B1: hCHT LV-AA (Homo sapiens; L531A/V532A) (protein)
chain: T1 sequence (Q9GZV3 1-580) with L531A, V532A
As usually defined, the Km is the concentration of substrate that gives half-maximal velocity. With B1, the Michaelis constant (Km) in series [1] worked out at 2.5 ± 0.4 µM.
